From the supplement of paper PMC8671470

Key:
Settings in all cases: 72 h
[1] = system: myeloid leukemia patient primary cells Pat.7; assay: cell viability (% survival relative to DMSO control); higher = less cytotoxic
Summary of the method: (§1)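 Mononuclear cells from patients with AML or CML were thawed, purified on Ficoll and placed in RPMI 1640 with 10% FBS at 10,000 cells/well on 384-well plates. The plates came pre-printed with 70 compounds at five tenfold concentrations spanning 1–10,000 nM, in duplicate, and cells were exposed for 72 h. CellTiter-Glo gave viability, scaled between DMSO wells and wells with 10 μM proteasome inhibitor. Where reported, area under the curve was obtained from log-logistic fits with four parameters using the drc and PharmacoGx R packages.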

[2] = system: myeloid leukemia patient primary cells Pat.4; assay: as above
Summary of the method: as §1

[3] = system: myeloid leukemia patient primary cells Pat.13; assay: as above
Summary of the method: as §1

[4] = system: myeloid leukemia patient primary cells Pat.5; assay: as above
Summary of the method: as §1

[5] = system: myeloid leukemia patient primary cells Pat.14; assay: as above
Summary of the method: as §1

[6] = system: myeloid leukemia patient primary cells Pat.6; assay: as above
Summary of the method: as §1

[7] = system: myeloid leukemia patient primary cells Pat.9; assay: as above
Summary of the method: as §1

[8] = system: myeloid leukemia patient primary cells Pat.1; assay: as above
Summary of the method: as §1

[9] = system: myeloid leukemia patient primary cells Pat.11; assay: as above
Summary of the method: as §1

[10] = system: myeloid leukemia patient primary cells Pat.3; assay: as above
Summary of the method: as §1

[11] = system: myeloid leukemia patient primary cells Pat.12; assay: as above
Summary of the method: as §1

[12] = system: myeloid leukemia patient primary cells Pat.2; assay: as above
Summary of the method: as §1

[13] = system: myeloid leukemia patient primary cells Pat.8; assay: as above
Summary of the method: as §1

[14] = system: myeloid leukemia patient primary cells Pat.15; assay: as above
Summary of the method: as §1

[15] = system: myeloid leukemia patient primary cells Pat.10; assay: as above
Summary of the method: as §1

HL-60 [16] = assay: area under dose-response curve (viability, 1 nM-10 uM) (fraction (0-1)); higher = more sensitive
Summary of the method: (§2)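 HL-60 cells grown in RPMI 1640 with 10% FBS were rescreened against the full library in 384-well plates, in duplicate, at five tenfold concentrations from 1 to 10,000 nM, alongside DMSO or 100 nM of one of three metabolic inhibitors for 72 h at 37 °C, 5% CO2. Reference wells contained DMSO or 10 μM proteasome inhibitor. Viability was read with CellTiter-Glo and normalised to these reference wells, and where reported, area under the curve was taken from four-parameter log-logistic fits in drc and PharmacoGx.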

HL-60 [17] = assay: cell viability (% survival relative to DMSO control); higher = less cytotoxic
Summary of the method: as §2

CCC(CC#N)OC(=O)N[C@@H](C)c1cccc(NC(=O)Nc2ccc(-c3cnco3)c(OC)c2)c1 (stereo in doubt) [AVN-944]
Settings | area under dose-response curve, co-treatment: AZD3965 100 nM | area under dose-response curve, co-treatment: DMSO vehicle | area under dose-response curve, co-treatment: GSK2194069 100 nM | area under dose-response curve, co-treatment: pictilisib 100 nM | cell viability, 1 nM [%] | cell viability, 10 nM [%] | cell viability, 100 nM [%] | cell viability, 1000 nM [%] | cell viability, 10000 nM [%]
HL-60 [16] | 0.273 | 0.233 | 0.227 | 0.255 | – | – | – | – | –
[1] | – | – | – | – | 98.1 | 91.5 | 25.3 | 17.6 | < 0
[2] | – | – | – | – | 86 | 90.7 | 92.9 | 63 | 33.4
[3] | – | – | – | – | 91.5 | 93.1 | 90.6 | 63.4 | 36.5
[4] | – | – | – | – | 56.9 | 45.4 | 40.4 | 9.12 | 5.69
[5] | – | – | – | – | 88.2 | 97.5 | 84.9 | 63.5 | 34.3
[6] | – | – | – | – | 97.1 | 90.8 | 92.9 | 87.4 | 64
[7] | – | – | – | – | 74.9 | 72.1 | 50 | 15.9 | 1.99
[8] | – | – | – | – | 90.9 | 85.7 | 87.2 | 82.4 | 65.8
[9] | – | – | – | – | > 100 | 99.4 | 90.8 | 86.2 | 60.6
[10] | – | – | – | – | > 100 | 80.4 | 51.2 | 29.3 | 20
[11] | – | – | – | – | 98.7 | > 100 | 87.7 | > 100 | 92.9
[12] | – | – | – | – | > 100 | 98.9 | 81.5 | 81.8 | 83.1
[13] | – | – | – | – | 82.5 | 92.3 | 86.4 | 68.7 | 58.1
[14] | – | – | – | – | 94.9 | > 100 | 83.3 | 89.7 | 71.1
[15] | – | – | – | – | > 100 | 66.9 | 41.6 | 58.3 | 4.94

cell viability [%], HL-60 [17]
Settings | 0.001 µM | 0.01 µM | 0.1 µM | 1 µM | 10 µM
co-treatment: AZD3965 100 nM | 96.6 | 102 | 102 | 35.4 | 8.09
co-treatment: DMSO vehicle | 99.36 | 97.01 | 103 | 50 | 12.9
co-treatment: GSK2194069 100 nM | 99.2 | 105 | 100 | 53 | 12.3
co-treatment: pictilisib 100 nM | 102.95 | 98.5 | 93.8 | 48.9 | 9.49

Oc1ncc(F)c(O)n1 [5-fluorouracil]
Settings | area under dose-response curve, co-treatment: AZD3965 100 nM | area under dose-response curve, co-treatment: DMSO vehicle | area under dose-response curve, co-treatment: GSK2194069 100 nM | area under dose-response curve, co-treatment: pictilisib 100 nM | cell viability, 1 nM [%] | cell viability, 10 nM [%] | cell viability, 100 nM [%] | cell viability, 1000 nM [%] | cell viability, 10000 nM [%]
HL-60 [16] | < 0.0301 | < 0.0301 | < 0.0301 | < 0.0301 | – | – | – | – | –
[1] | – | – | – | – | 89.7 | 83.9 | 82.8 | 92.8 | 50.8
[2] | – | – | – | – | 90.8 | 88.4 | 92.1 | 88.9 | 60.6
[3] | – | – | – | – | 88.8 | 91.2 | 90 | 72.7 | 81
[4] | – | – | – | – | 88.1 | 90.3 | 84.7 | 61.3 | 13.9
[5] | – | – | – | – | 94.6 | 87 | 90.3 | 90.2 | 84.9
[6] | – | – | – | – | > 100 | 96.6 | 95.8 | 99.3 | 98.5
[7] | – | – | – | – | 76.6 | 52.3 | 92.6 | 71.4 | 45.4
[8] | – | – | – | – | 88.5 | 93.1 | 91 | 97 | 85.8
[9] | – | – | – | – | 99.9 | 97.2 | 96.6 | 96.7 | 95.7
[10] | – | – | – | – | 90.4 | 96.5 | 94.5 | 96.6 | 41.9
[11] | – | – | – | – | 94.2 | 95.4 | 87.6 | 95.5 | 91.4
[12] | – | – | – | – | 95.9 | 94.9 | 99.1 | 88.9 | 97.5
[13] | – | – | – | – | 85.8 | 86.3 | 94.5 | 80.1 | 98.7
[14] | – | – | – | – | 83.4 | 91.5 | 96.7 | 91 | 93.9
[15] | – | – | – | – | > 100 | 78.1 | 65 | 68.9 | 50.5

cell viability [%], HL-60 [17]
Settings | 0.001 µM | 0.01 µM | 0.1 µM | 1 µM | 10 µM
co-treatment: AZD3965 100 nM | 97.8 | 98.3 | 102 | 102.9 | 55
co-treatment: DMSO vehicle | 101.99 | 97.89 | 98.8 | 102 | 76.1
co-treatment: GSK2194069 100 nM | 99.6 | 104 | 99 | 100 | 75.9
co-treatment: pictilisib 100 nM | 102 | 75.9 | 113 | 96.5 | 68.7
